# Laboratory results reported in patent US20090315454A1, “IRIDIUM COMPLEX COMPOUND, ORGANIC ELECTROLUMINESCENT DEVICE OBTAINED BY USING THE SAME, AND USES OF THE DEVICE” (Showa Denko K.K., priority 2006, published 2009).
# Assay: Solubility test (visual, complete dissolution at prescribed concentration)
# Assay type: physicochemical
# Parameters: key: A: completely dissolved; B: partially undissolved
# Conditions: stirred at room temperature for one hour
# Experimental: The facial and meridional iridium complex compounds (A) synthesized in Example 1 and the facial iridium complex compounds (B) to (D) synthesized in Examples 2 to 4 were tested for solubility. The test was carried out by mixing the iridium complex compound with chloroform or toluene so that a prescribed concentration was obtained, and visually determining if the iridium complex compound was completely dissolved or partially undissolved after the mixture had been stirred at room temperature for one hour.
# Iridium complex compounds Ir(ppy)3 (the following Formula (Y)) and Ir(Fppy)3 (the following Formula (X)) were tested for solubility. The test was carried out by mixing the iridium complex compound with chloroform or toluene so that a prescribed concentration was obtained, and visually determining if the iridium complex compound was completely dissolved or partially undissolved after the mixture had been stirred at room temperature for one hour.
SMILES,Solubility at concentration 0.1 wt % (chloroform),Solubility at concentration 0.5 wt % (chloroform),Solubility at concentration 1 wt % (chloroform),Solubility at concentration 0.1 wt % (toluene),Solubility at concentration 0.5 wt % (toluene),Solubility at concentration 1 wt % (toluene)
CCCc1cc(-c2c(F)cc(F)c[c]2[Ir]([c]2cc(F)cc(F)c2-c2cc(CCC)c(CC)cn2)[c]2cc(F)cc(F)c2-c2cc(CCC)c(CC)cn2)ncc1CC [Compound (D) facial complex],A,A,A,A,A,A
CCCCCc1ccnc(-c2c(F)cc(F)c[c]2[Ir]([c]2cc(F)cc(F)c2-c2cc(CCCCC)ccn2)[c]2cc(F)cc(F)c2-c2cc(CCCCC)ccn2)c1 [Compound (B) facial complex],A,A,A,A,B,B
CC(C)(C)c1ccnc(-c2[c-]cc(F)cc2F)c1.CC(C)(C)c1ccnc(-c2[c-]cc(F)cc2F)c1.CC(C)(C)c1ccnc(-c2[c-]cc(F)cc2F)c1.[Ir+3] [Compound (A) meridional complex],A,A,A,A,A,A
CCCCC(CCCC)c1ccnc(-c2c(F)cc(F)c[c]2[Ir]([c]2cc(F)cc(F)c2-c2cc(C(CCCC)CCCC)ccn2)[c]2cc(F)cc(F)c2-c2cc(C(CCCC)CCCC)ccn2)c1 [Compound (C) facial complex],A,A,A,A,A,B
